Assay results published in patent US10988466B2, “Heterocyclic derivatives useful as SHP2 inhibitors” (Jacobio Pharmaceuticals Co., Ltd., priority 2017, dated 2021).
Read-outs that look alike come from different tables or passages of the source.

Key:
[1] = target: T1, SHP2 (Homo sapiens, UniProt Q06124); test: Phosphatase assays (IC50), DiFMUP substrate
T1 sequence (Q06124 1-593): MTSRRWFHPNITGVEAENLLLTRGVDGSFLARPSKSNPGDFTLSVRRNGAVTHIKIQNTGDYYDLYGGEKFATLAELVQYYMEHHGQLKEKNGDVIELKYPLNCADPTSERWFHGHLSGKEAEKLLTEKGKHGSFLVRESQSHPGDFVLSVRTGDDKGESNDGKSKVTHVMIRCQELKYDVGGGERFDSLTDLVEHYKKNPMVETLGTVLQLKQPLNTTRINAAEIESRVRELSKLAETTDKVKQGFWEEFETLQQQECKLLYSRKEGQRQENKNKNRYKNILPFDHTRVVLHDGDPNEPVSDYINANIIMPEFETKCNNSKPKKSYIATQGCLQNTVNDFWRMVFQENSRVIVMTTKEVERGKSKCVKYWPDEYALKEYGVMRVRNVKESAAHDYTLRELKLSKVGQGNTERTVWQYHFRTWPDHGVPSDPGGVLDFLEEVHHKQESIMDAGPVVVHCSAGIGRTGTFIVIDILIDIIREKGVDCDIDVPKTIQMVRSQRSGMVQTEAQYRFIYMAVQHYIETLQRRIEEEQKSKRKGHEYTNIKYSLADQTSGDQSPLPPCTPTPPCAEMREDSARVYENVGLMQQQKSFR

[2] = target: T1, SHP2; test: biochemical; conditions: read-out: SHP2 inhibition (%)@0.1 μM
[3] = system: MV-4-11; test: Cell proliferation assay (MTS/PMS); assay type: cell-based; conditions: Homo sapiens, MV4-11
[4] = MV-4-11 cell proliferation, MTS/PMS readout at day 8, compounds added 24 hours after plating, read-out: IC50
[5] = SHP2 0.5 nM activated with dPEG8 peptide, DiFMUP 12 μM, 30 min

IC50 [1] [nM] | inhibition at 0.1 µM [2] [%] | SMILES | other results
36 |  | Nc1nc(N2CCC3(CC2)Cc2scnc2[C@H]3N)cnc1Sc1ccncc1F [Example 88, (S)-1′-(6-amino-5-((3-fluoropyridin-4-yl)thio)pyrazin-2-yl)-4,6-dihydrospiro[cyclopenta [d]thiazole-5,4′-piperidin]-4-amine] | 
3 |  | Nc1nccc(Sc2cnc(N3CCC4(CC3)Cc3scnc3[C@H]4N)cn2)c1Cl [Example 152, (S)-1′-(5-((2-amino-3-chloropyridin-4-yl)thio)pyrazin-2-yl)-4,6-dihydrospiro[cyclopenta[d]thiazole-5,4′-piperidin]-4-amine] | 
8 | 75 | Nc1nc(N2CCC3(CC2)CC2CC2[C@H]3N)cnc1Sc1ccnc(N)c1Cl (stereo partly drawn) [Example 81, (2R)-1′-(6-amino-5-((2-amino-3-chloropyridin-4-yl)thio)pyrazin-2-yl)spiro [bicyclo[3.1.0]hexane-3,4′-piperidin]-2-amine] | 
7 |  | Nc1nc(N2CCC3(CC2)Cc2ncccc2[C@H]3N)cnc1Sc1ccnc(N)c1Cl [Example 10, (S)-1′-(6-amino-5-((2-amino-3-chloropyridin-4-yl)thio)pyrazin-2-yl)-5,7-dihydrospiro [cyclopenta[b]pyridine-6,4′-piperidin]-5-amine] | IC50 [3, 4]: 4 nM
7 | 86 | Nc1nc(N2CCC3(CC2)Cc2nc(Cl)ccc2[C@H]3N)cnc1Sc1ccnc(N)c1Cl [Example 19, (S)-1′-(6-amino-5-((2-amino-3-chloropyridin-4-yl)thio)pyrazin-2-yl)-2-chloro-5,7-dihydrospiro[cyclopenta [b]pyridine-6,4′-piperidin]-5-amine] | 
6 |  | CN(C)c1nccc(Sc2cnc(N3CCC4(CC3)Cc3ncccc3[C@H]4N)cn2)c1Cl [Example 85, (S)-1′-(5-((3-chloro-2-(dimethyl-amino)pyridin-4-yl)thio)pyrazin-2-yl)-5,7-dihydrospiro [cyclopenta [b]pyridine-6,4′-piperidin]-5-amine] | 
3 |  | Nc1nc(N2CCC3(CC2)Cc2ncsc2[C@H]3N)cnc1Sc1ccnc(N)c1Cl [Example 155, (S)-1′-(6-amino-5-((2-amino-3-chloropyridin-4-yl)thio)pyrazin-2-yl)-4,6-dihydrospiro[cyclopenta[d]thiazole-5,4′-piperidin]-6-amine] | 
22 | 81 | CC(=O)N1CC(F)(F)c2c(Sc3ncc(N4CCC5(CC4)CC4CC4[C@H]5N)nc3N)cccc21 (stereo partly drawn) [Example 7, 1-(4-((3-amino-5-((2R)-2-aminospiro [bicyclo[3.1.0]hexane-3,4′-piperidin]-1′-yl)pyrazin-2-yl)thio)-3,3-difluoro-indolin-1-yl)ethan-1-one] | 
9 |  | Nc1nc(N2CCC3(CC2)Cc2ncccc2[C@H]3N)cnc1Sc1ccncc1F [Example 87, (S)-1′-(6-amino-5-((3-fluoropyridin-4-yl)thio)pyrazin-2-yl)-5,7-dihydrospiro[cyclopenta [b]pyridine-6,4′-piperidin]-5-amine] | 
3 |  | Nc1nc(N2CCC3(CC2)Cc2ncccc2[C@H]3N)cnc1Sc1cccc(Cl)c1Cl [Example 84, (S)-1′-(6-amino-5-((2,3-dichloro-phenyl)thio)pyrazin-2-yl)-5,7-dihydrospiro[cyclopenta [b]pyridine-6, 4′-piperidin]-5-amine] | 
12 | 82 | N=C1c2cscc2CC12CCN(c1cnc(Sc3ccnc(N)c3Cl)c(N)n1)CC2 [Example 146, 3-((2-amino-3-chloropyridin-4-yl)thio)-6-(4-imino-4H,6H-spiro [cyclopenta[c]thiophene-5,4′-piperidin]-1′-yl)pyrazin-2-amine] | 
4 | 88 | Nc1nc(N2CCC3(CC2)Cc2sc(Cl)nc2[C@H]3N)cnc1Sc1ccnc(N)c1Cl [Example 44, (S)-1′-(6-amino-5-((2-amino-3-chloropyridin-4-yl)thio)pyrazin-2-yl)-2-chloro-4,6-dihydro-spiro[cyclopenta[d]thiazole-5,4′-piperidin]-4-amine] | IC50 [3, 4]: 7.4 nM
 | 87 | Nc1nc(N2CCC3(CC2)c2ccccc2C[C@H]3N)cnc1Sc1ccnc(N)c1Cl [Example 1, (R)-1′-(6-amino-5-((2-amino-3-chloropyridin-4-yl)thio)pyrazin-2-yl)-2,3-dihydrospiro[indene-1,4′-piperidin]-2-amine] | IC50 [1, 5]: 8 nM
 | 92 | Nc1nccc(Sc2cnc(N3CCC4(CC3)Cc3ncccc3[C@H]4N)cn2)c1F [Example 92, (S)-1′-(5-((2-amino-3-fluoropyridin-4-yl)thio)pyrazin-2-yl)-5,7-dihydrospiro[cyclopenta [b]pyridine-6,4′-piperidin]-5-amine] | IC50 [3, 4]: 9 nM
14 |  | N[C@@H]1c2cccnc2CC12CCN(c1cnc(Sc3ccncc3)cn1)CC2 [Example 86, (S)-1′-(5-(pyridin-4-ylthio)pyrazin-2-yl)-5,7-dihydrospiro [cyclopenta [b]pyridine-6,4′-piperidin]-5-amine] | 
56 |  | Nc1nc(N2CCC3(CC2)Cc2ncccc2C3N)cnc1Sc1ccnc(N)c1Cl (stereo not drawn) [Example 121, 1′-(6-amino-5-((2-amino-3-chloropyridin-4-yl)thio)pyrazin-2-yl)-5,7-dihydrospiro [cyclopenta[b]pyridine-6,4′-piperidin]-5-amine] | 

SMILES | IC50 [1] [nM] | inhibition at 0.1 µM [2] [%] | other results
COc1ccc2c(c1)[C@@H](N)C1(CCN(c3cnc(Sc4ccnc(N)c4Cl)c(N)n3)CC1)C2 [Example 5, (S)-1′-(6-amino-5-((2-amino-3-chloropyridin-4-yl)thio)pyrazin-2-yl)-6-methoxy-1,3-dihydro spiro[indene-2,4′-piperidin]-1-amine] | 6 | 84 | IC50 [3]: 4.8 nM
Nc1nc(N2CCC3(CC2)Oc2ccccc2[C@H]3N)cnc1Sc1ccnc(N)c1Cl [Example 45, (R)-1′-(6-amino-5-((2-amino-3-chloropyridin-4-yl)thio)pyrazin-2-yl)-3H-spiro[benzofuran-2,4′-piperidin]-3-amine] |  | 68 | IC50 [3]: 2.5 nM
Nc1nc(N2CCC3(CC2)Cc2ccccc2[C@H]3N)cnc1Sc1ccnc(N)c1Cl [Example 2, (S)-1′-(6-amino-5-((2-amino-3-chloropyridin-4-yl)thio)pyrazin-2-yl)-1,3-dihydrospiro[indene-2,4′-piperidin]-1-amine] |  | 75 | IC50 [1, 5]: 4 nM; IC50 [3]: 2.7 nM
